Tested on: U87MG cells
Assay: Premature drug release study: cell proliferation (CCK-8) with hENT1 inhibitor 6 co-administered
Assay type: cell-based
Conditions: for Fold Increase in ED50 in U87MG Cells: ED50 with 6 / ED50 without 6, minus 1
Protocol: U87MG, and PANC-1 cells were grown in Dulbecco's Modified Eagle Medium (DMEM) with 10% fetal bovine serum (FBS) and 1% penicillin/streptomycin. MDA-MB-468 cells were grown in DMEM and Ham's F-12 medium (DMEM/F12) with 10% FBS and 1% penicillin/streptomycin. A2780 and BxPC3 cells were grown in Roswell Park Memorial Institute medium (RPMI) 1640+L-glutamine, with 10% FBS and 1% penicillin/streptomycin. D270 cells were grown in MEM (Richter's modification, no phenol red) with 10% FBS and 0.1% Gentamicin. Unless otherwise specified, cells were incubated at 37° C., 5% CO2. Flow cytometry was performed using an EMD Millpore Guava EasyCyte 8HT flow cytometer and the resulting data were evaluated using FlowJo software provided by TreeStar, Inc. Cell proliferation was measured using the Dojindo Cell Counting Kit-8 by replacing the media in each well with 100 μL of media containing 10% WST-8. After incubation for 1 h at 37° C., absorbance, A, at 450 nm was measured with a BioTek Synergy H4 microtiter plate reader. The background signal of CCK-8 alone was subtracted from all samples. Cell proliferation was then expressed as a percentage of absorbance relative to the control of untreated cells (Equation 2). Nonlinear regression analysis was performed using GraphPad Prism.
The relative extent of premature drug-release in the cases of 5a, 5c, and 5d was next determined in order to identify the linker best-suited for delivering the drug payload intracellularly. An established technique for blocking the cellular uptake of Gemcitabine by using S (4-nitrobenzyl)-6-thioinosine (6) was employed, which is known to inhibit human equilibrative nucleoside transporters, such as hENT1. Because hENT1 is a critical regulator of the cellular internalization of Gemcitabine, it was reasoned that by inhibiting its activity with 6, the cytotoxic effect of any drug payload that was released in the extracellular environment could be diminished. It was anticipated that this would allow the distinction between KDCs that were potent due to the undesirable release of Gemcitabine outside of the cell from those that released Gemcitabine intracellularly (FIG. 6). The extent of premature drug release in the extracellular environment was studied by inhibiting activity of nucleoside transporters (such as hENT1) of U87MG cells through the use of the hENT1 inhibitor S-(4-nitrobenzyl)-6-thioinosine (6). […] In a similar fashion, it was expected that for KDCs which released a significant amount of the drug payload in the extracellular environment, an increase in the concentration of 6 should result in a concomitant increase in ED50 value.
Media used to prepare varying concentrations of drug, protein, or protein-drug conjugate also contained varying concentrations of the hENT1 inhibitor, 6. Additionally, prior to treatment, cell were incubated at 37° C., 5% CO2 with fresh media containing the varying concentrations of 6 for 2 h. Cell proliferation was measured using the Cell Counting Kit-8 by replacing the media in each well with 100 μL of media containing 10% WST-8. After incubation for 1 h at 37° C., absorbance at 450 nm was measured with a Synergy H4 microtiter plate reader. ED50 values were determined by nonlinear regression analysis. Example dose-response curves for 3 (FIG. 7) and 5d (FIG. 8) are provided. Cell proliferation was measured according to the method described in Section 1.3. Error bars represent the standard deviation of experiments performed in triplicate.
These values were normalized as Fold Increase in ED50 (defined in Equation 2) by dividing the ED50 of each drug when 6 was co-administered at concentration=C by the ED50 of that same drug when no 6 was added, then subtracting 1 (thus, a “0-fold increase” would mean no increase, while a “1-fold increase” would mean that the ED50 value had doubled). Fold Increase in ED50 for each drug at each concentration of 6 is provided in Table 5, and these values were used to generate FIG. 9.

CC(C)C[C@@H]1NC(=O)[C@@H]2CSSC[C@@H](C(=O)NCC(=O)O)NC(=O)[C@H](Cc3ccccc3)NC(=O)CNC(=O)[C@H](CC(N)=O)NC(=O)[C@@H]3CCCN3C(=O)CNC(=O)[C@@H]3CSSC[C@H](NC(=O)[C@H]([C@@H](C)O)NC(=O)[C@H](CC(C)C)NC(=O)[C@@H]4CCCN4C(=O)[C@@H]4CCCN4C(=O)[C@H](CC(N)=O)NC(=O)[C@H](CC(=O)O)NC(=O)CNC(=O)[C@H](CCCNC(=N)N)NC(=O)[C@@H]4CCCN4C(=O)[C@H](CCCNC(=N)N)NC(=O)[C@@H]4CCCN4C(=O)[C@@H](NC(=O)CN)CSSC[C@H](NC(=O)CNC(=O)[C@H](C)NC1=O)C(=O)N[C@@H](C(C)C)C(=O)N3)C(=O)N[C@@H](CCCn1cc(CCC(=O)N[C@H](C(=O)N[C@@H](C)C(=O)Nc3ccc(COC(=O)Nc4ccn([C@@H]5O[C@H](CO)[C@@H](O)C5(F)F)c(=O)n4)cc3)C(C)C)nn1)C(=O)N[C@@H](CCC(N)=O)C(=O)N[C@@H](CC(=O)O)C(=O)N[C@@H](CO)C(=O)N[C@@H](CC(=O)O)C(=O)N2 [5d]
Effect of hENT1 inhibitor 6 on potency (ED50) (in words) (U87MG cells, increasing concentrations of 6 up to 10 μM): no effect on the potency
Fold Increase in ED50 in U87MG Cells ([6] = 0 nM): 0
Fold Increase in ED50 in U87MG Cells ([6] = 1 nM): −0.3 ± 0.3
Fold Increase in ED50 in U87MG Cells ([6] = 10 nM): −0.6 ± 0.6
Fold Increase in ED50 in U87MG Cells ([6] = 100 nM): 0.6 ± 1.0
Fold Increase in ED50 in U87MG Cells ([6] = 1000 nM): 1.2 ± 1.2
Fold Increase in ED50 in U87MG Cells ([6] = 10000 nM): 8.1 ± 5.4

Source: patent US10765625B2, “Knottin-drug conjugates and methods of using the same” (THE BOARD OF TRUSTEES OF THE LELAND STANFORD JUNIOR …, priority 2016, dated 2020)
